Reference: patent publication US10316017B2, “COT modulators and methods of use thereof” (Gilead Sciences, Inc., priority 2015, dated 2019)

Experiments:
[1] = tested on: TNFα production in LPS-stimulated human monocytes; assay: Cot Monocyte TNFα Cell Based Assay; conditions: Homo sapiens, Monocyte, TNFα in LPS-stimulated human monocytes; read-out: EC50 TNF
Outline: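 5,000 cells/well; cmpd 1 h, 37 °C, 0.5% DMSO final; LPS 50 pg/ml, 4 h, 37 °C; media TNFα by HTRF sandwich (cryptate/XL665), RT overnight; % control vs unstimulated/stimulated wells.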

[2] = target: T1, human Cot catalytic domain (30-397 amino acids) (Homo sapiens, UniProt P41279); assay: High Throughput Cot Biochemical Assay (KinEASE TR-FRET); conditions: Cot KinEASE TR-FRET (HTRF) biochemical assay, 400 μM ATP; read-out: IC50 HTRF
T1 construct: Purified recombinant human Cot catalytic domain (30-397 amino acids) was purchased from Cama Biosciences; purchased Cama Biosciences (so in the source)
Outline: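 First, purified human Cot (aa 30-397) at 5 nM phosphorylates an XL665-labeled STK3 peptide (1 μM) at 400 μM ATP, pH 7.0, 0.1% DMSO. Then a europium-conjugated phospho-specific antibody binds the product, giving the TR-FRET signal.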

T1 sequence (P41279 30-397): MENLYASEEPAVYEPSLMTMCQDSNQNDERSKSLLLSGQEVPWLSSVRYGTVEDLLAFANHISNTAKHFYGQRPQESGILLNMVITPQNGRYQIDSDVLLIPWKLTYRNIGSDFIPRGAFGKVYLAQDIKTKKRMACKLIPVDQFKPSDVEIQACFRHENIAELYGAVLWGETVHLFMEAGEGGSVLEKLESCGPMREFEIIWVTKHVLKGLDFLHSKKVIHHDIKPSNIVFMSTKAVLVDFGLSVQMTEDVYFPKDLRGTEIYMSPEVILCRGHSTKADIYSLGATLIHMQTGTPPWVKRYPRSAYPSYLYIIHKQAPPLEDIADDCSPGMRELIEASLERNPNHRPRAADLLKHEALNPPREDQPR

SMILES	EC50 [1] [nM]	IC50 [2] [nM]
[2H][C@@](Nc1cc(Cl)c2ncc(C#N)c(N[C@@H]3[C@@H]4CCC[C@@H]43)c2c1)(c1cn(C2CC2)nn1)c1ccccc1Cl [Example 124, 4-(((1R,5S,6s)-bicyclo [3.1.0]hexan-6-yl)amino)-8-chloro-6-(((2-chlorophenyl)(1-cyclopropyl-1H-1,2,3-triazol-4-yl)methyl-d)amino) quinoline-3-carbonitrile]	218	14
[2H][C@](Nc1cc(Cl)c2ncc(C#N)c(Nc3ccccc3OC(F)(F)F)c2c1)(c1ccc(F)cc1)c1cn(C2CC2)nn1 [Example 126, (S)-8-chloro-6-(((1-cyclopropyl-1H-1,2,3-triazol-4-yl)(4-fluorophenyl)methyl-d)amino)-4-((2-(trifluoromethoxy)phenyl)amino)quinoline-3-carbonitrile]	> 10000	397
[2H][C@@](Nc1cc(C#N)c2ncc(C#N)c(NC3CCOCC3(C)C)c2c1)(c1cn(C2CC2)nn1)c1ccccc1Cl (stereo partly drawn) [Example 128, 6-(((S)-(2-chlorophenyl) (1-cyclopropyl-1H-1,2,3-triazol-4-yl)methyl-d)amino)-4-((3,3-dimethyltetrahydro-2H-pyran-4-yl)amino)quinoline-3,8-dicarbonitrile]	54	2
[2H][C@@](Nc1cc(C#N)c2ncc(C#N)c(NCC(C)(C)C)c2c1)(c1cn(C2(C(F)(F)F)CC2)nn1)c1ccccc1Cl [Example 129, (S)-6-(((2-chlorophenyl) (1-(1-(trifluoromethyl)cyclopropyl)-1H-1,2,3-triazol-4-yl)methyl-d)amino)-4-(neopentylamino) quinoline-3,8-dicarbonitrile]	344	20
[2H][C@](Nc1cc(C#N)c2ncc(C#N)c(NCC(C)(C)C)c2c1)(c1ccc(F)cc1)c1cn(C2(C(F)(F)F)CC2)nn1 [Example 130, (S)-6-(((4-fluorophenyl) (1-(1-(trifluoromethyl)cyclopropyl)-1H-1,2,3-triazol-4-yl)methyl-d)amino)-4-(neopentylamino) quinoline-3,8-dicarbonitrile]	195	23
[2H][C@](Nc1cc(C#N)c2ncc(C#N)c(N[C@H](CC)c3ccccc3)c2c1)(c1ccc(F)cc1)c1cn(C2(C(F)(F)F)CC2)nn1 [Example 132, 6-(((S)-(4-fluorophenyl) (1-(1-(trifluoromethyl)cyclopropyl)-1H-1,2,3-triazol-4-yl)methyl-d)amino)-4-(((R)-1-phenylpropyl)amino)quinoline-3,8-dicarbonitrile]	140	14
[2H][C@](Nc1ccc2ncc(C#N)c(NCC(C)(C)C)c2c1)(c1ccc(F)cc1)c1cn(C2CC2)nn1 [Example 133, 6-(((1-cyclopropyl-1H-1,2,3-triazol-4-yl)(4-fluorophenyl)methyl-d)amino)-4-(neopentylamino) quinoline-3-carbonitrile]	313	21
[2H][C@](Nc1cc(Cl)c2ncc(C#N)c(NCC(C)(C)CC#N)c2c1)(c1ccc(F)cc1)c1cn(C2CC2)nn1 [Example 134, (S)-8-chloro-4-((3-cyano-2,2-dimethylpropyl)amino)-6-(((1-cyclopropyl-1H-1,2,3-triazol-4-yl)(4-fluorophenyl)methyl-d)amino)quinoline-3-carbonitrile]	142	6

More lines, now with the values ahead:

EC50 [1] [nM]	IC50 [2] [nM]	SMILES
7500	962	[2H][C@](Nc1cc(Cl)c2ncc(C#N)c(NC3(C4CC4)CC3)c2c1)(c1ccc(F)cc1)c1cn(C2CC2)nn1 [Example 135, (S)-4-([1,1'-bi(cyclopropan)]-1-ylamino)-8-chloro-6-(((1-cyclopropyl-1H-1,2,3-triazol-4-yl)(4-fluorophenyl)methyl-d)amino)quinoline-3-carbonitrile]
20	1	[2H][C@@](Nc1cc(Cl)c2ncc(C#N)c(N[C@H](CCC#N)c3ccccc3)c2c1)(c1cn(C2CC2)nn1)c1cccc(C#N)c1C [Example 136, 8-chloro-4-(((R)-3-cyano-1-phenylpropyl)amino)-6-(((S)-(3-cyano-2-methylphenyl)(1-cyclopropyl-1H-1,2,3-triazol-4-yl)methyl-d)amino) quinoline-3-carbonitrile]
4370	606	[2H][C@](Nc1cc(-c2cnn(C)c2)c2ncc(C#N)c(NCC(C)(C)C)c2c1)(c1ccc(F)cc1)c1cn(C2CC2)nn1 [Example 137, (S)-6-(((1-cyclopropyl-1H-1,2,3-triazol-4-yl)(4-fluorophenyl)methyl-d)amino)-8-(1-methyl-1H-pyrazol-4-yl)-4-(neopentylamino) quinoline-3-carbonitrile]
1360	139	[2H][C@](Nc1cc(C(=O)N(C)C)c2ncc(C#N)c(NCC(C)(C)C)c2c1)(c1ccc(F)cc1)c1cn(C2CC2)nn1 [Example 138, (S)-3-cyano-6-(((1-cyclopropyl-1H-1,2,3-triazol-4-yl) (4-fluorophenyl)methyl-d)amino)-N,N-dimethyl-4-(neopentylamino) quinoline-8-carboxamide]
276	33	[2H][C@](Nc1cc(-c2ccc(F)nc2)c2ncc(C#N)c(NCC(C)(C)C)c2c1)(c1ccc(F)cc1)c1cn(C2CC2)nn1 [Example 139, (S)-6-(((1-cyclopropyl-1H-1,2,3-triazol-4-yl)(4-fluorophenyl)methyl-d)amino)-8-(6-fluoropyridin-3-yl)-4-(neopentylamino) quinoline-3-carbonitrile]
> 10000	1500	[2H][C@](Nc1cc(-c2ccncc2)c2ncc(C#N)c(NCC(C)(C)C)c2c1)(c1ccc(F)cc1)c1cn(C2CC2)nn1 [Example 140, (S)-6-(((1-cyclopropyl-1H-1,2,3-triazol-4-yl)(4-fluorophenyl)methyl-d)amino)-4-(neopentylamino)-8-(pyridin-4-yl)quinoline-3-carbonitrile]
72	5	[2H][C@@](Nc1cc(Cl)c2ncc(C#N)c(NC3CCOCC3(C)C)c2c1)(c1cn(C2CC2)nn1)c1ccccc1Cl (stereo partly drawn) [Example 141, 8-chloro-6-(((S)-(2-chlorophenyl)(1-cyclopropyl-1H-1,2,3-triazol-4-yl)methyl-d)amino)-4-((3,3-dimethyltetrahydro-2H-pyran-4-yl)amino) quinoline-3-carbonitrile]
77	8	[2H][C@](Nc1cc(Cl)c2ncc(C#N)c(NC3[C@H]4COC[C@@H]34)c2c1)(c1ccc(F)cc1)c1cn(C2CC2)nn1 (stereo partly drawn) [Example 142, 4-(((1R,5S)-3-oxabicyclo[3.1.0]hexan-6-yl)amino)-8-chloro-6-(((S)-(1-cyclopropyl-1H-1,2,3-triazol-4-yl)(4-fluorophenyl)methyl-d)amino)quinoline-3-carbonitrile]
1170	99	[2H][C@](Nc1cc(Cl)c2ncc(C#N)c(NC3CC34CCCCC4)c2c1)(c1ccc(F)cc1)c1cn(C2CC2)nn1 (stereo partly drawn) [Example 143, 8-chloro-6-(((S)-(1-cyclopropyl-1H-1,2,3-triazol-4-yl)(4-fluorophenyl)methyl-d)amino)-4-(spiro[2.5]octan-1-ylamino)quinoline-3-carbonitrile]
